In paper PMC6487263, “Kinetic and structural analysis of human ALDH9A1” (Bioscience Reports, 2019):

Experiments:
[1] = biological target: T1, human ALDH9A1 (HsALDH9A1) (Homo sapiens, UniProt P49189); assay: microscale thermophoresis, RED-tris-NTA labelled His-tagged enzyme; type: binding
T1 construct: full-length 494-residue protein, His-tag kept (pCDFDuet, BamHI/XhoI), recombinant from E. coli; silent polymorphism at Ile110 codon
Description: microscale thermophoresis, RED-tris-NTA labelled His-tagged enzyme on human ALDH9A1 (HsALDH9A1)

[2] = biological target: T1, human ALDH9A1 (HsALDH9A1); assay: NADH formation at […] nm, partial substrate inhibition fit; type: biochemical; settings: substrate inhibition constant; 1 mM NAD+, 150 mM sodium pyrophosphate pH 7.5, 30 °C
[3] = biological target: T1, human ALDH9A1 (HsALDH9A1); assay: nanoDSF (Tycho NT.[…]); type: binding; settings: 150 mM Tris/HCl pH 7.5, apoenzyme reference 69.5 °C
[4] = biological target: T1, human ALDH9A1 (HsALDH9A1); assay: microscale thermophoresis; type: binding

T1 sequence (P49189 whole entry): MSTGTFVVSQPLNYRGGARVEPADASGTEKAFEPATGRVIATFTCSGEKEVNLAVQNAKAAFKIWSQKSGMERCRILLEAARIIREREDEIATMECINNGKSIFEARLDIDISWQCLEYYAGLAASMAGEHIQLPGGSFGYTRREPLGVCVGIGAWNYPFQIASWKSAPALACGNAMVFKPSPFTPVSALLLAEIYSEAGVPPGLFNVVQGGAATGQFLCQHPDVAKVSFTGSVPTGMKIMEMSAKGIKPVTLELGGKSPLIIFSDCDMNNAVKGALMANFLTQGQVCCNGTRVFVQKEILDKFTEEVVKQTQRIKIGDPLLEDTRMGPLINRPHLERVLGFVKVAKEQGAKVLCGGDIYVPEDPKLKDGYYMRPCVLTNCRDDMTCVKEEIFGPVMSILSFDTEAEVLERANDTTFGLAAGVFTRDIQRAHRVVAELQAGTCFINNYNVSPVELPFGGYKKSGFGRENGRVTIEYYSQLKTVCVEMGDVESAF

Row | Structure (SMILES) | Kd [1] | Ki [2] | further results
1 | C[N+](C)(C)CC=O [BAL] | 171 ± 35 µM | – | –
2 | CN(C)CCCC=O [DMABAL] | – | 10880 ± 1350 µM | –
3 | N=C(N)NCCCC=O [GBAL] | – | 7230 ± 1650 µM | –
4 | NC(=O)c1ccc[n+]([C@@H]2O[C@H](COP(=O)([O-])OP(=O)(O)OC[C@H]3O[C@@H](n4cnc5c(N)ncnc54)[C@H](O)[C@@H]3O)[C@@H](O)[C@H]2O)c1 [NAD^+] | 16 ± 3 µM | – | Tm ([3]; 5 mM ligand): 69.5 °C
5 | C[N+](C)(C)CCCC(=O)[O-] [TMABA] | – | – | Kd [4]: 2600 ± 200 µM; Tm ([3]; 10 mM ligand): 66 °C

More lines, main results first:

Row | Kd [1] | Ki [2] | Structure (SMILES) | further results
6 | 6 ± 3 µM | 2200 ± 590 µM | C[N+](C)(C)CCCC=O [TMABAL, 4-(trimethylamino)butyraldehyde] | Tm ([3]; 5 mM ligand): 63 °C
7 | – | 470 ± 45 µM | C[N+](C)(C)CCC=O [TMAPAL, 3-(trimethylamino)propionaldehyde] | –
